Experimental data: patent US20220264878A1, “HERBICIDAL COMPOSITION CONTAINING R-TYPE PYRIDYLOXY CARBOXYLIC ACID DERIVATIVE AND USE THEREOF” (Qingdao Kingagroot Chemical Compound Co., Ltd., priority 2019, published 2022)
Where two headings read alike, the source gives them in different places.

Columns and labels:
Assay type in all cases: in vivo
Echinochloa caudate = assay: Post-emergence foliage spray, pot culture, fresh weight inhibition (Tables 1-48, 51-98, 101-148; 24 days)
Method in brief: (§1)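 Pot-grown weeds were thinned to 15 per pot (45 per treatment) and sprayed on foliage at the 5–6-leaf stage for grasses or the 6–7-leaf stage for broadleaves. Agents were dissolved in acetone with 0.1% Tween-80 and applied at 450 kg/ha spray volume and 0.3 MPa. Plants were then kept in a greenhouse. Above-ground fresh weight of survivors, with dead plants counted as zero, gave inhibition versus a solvent/emulsifier blank.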

Malachium aquaticum = assay: as above
Method in brief: as §1

Alopecurus japonicus = assay: Post-emergence foliage spray, pot culture, fresh weight inhibition (Tables 151-206; 20 days)
Method in brief: (§2)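 Field-collected weeds grown in pots in a greenhouse (20-30° C., natural light, 57-72% RH), 15 per pot, 3 pots × 4 replicates. Single foliar spray at 4-5 leaves (grasses) or 5-6 leaves (broadleaf) with acetone/0.1% Tween-80 dilutions at 450 kg/ha, 0.3 MPa. Above-ground fresh weight inhibition versus solvent blank at 20 days.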

Digitaria sanguinalis = assay: as above; conditions: Digitaria sanguinalis, 480 h, read-out: Control effect (%) of A applied alone in corresponding dose
Method in brief: as §2

Eleusine indica = assay: as above
Method in brief: as §2

Sinapis arvensis = assay: as above
Method in brief: as §2

Amaranthus retroflexus = assay: as above
Method in brief: (§3)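 Pre-germinated seeds (25° C soak 6 h, 28° C dark) grown in pots, thinned to 15 per pot; foliage-sprayed at 4~5-leaf (grasses) or 5~6-leaf (broadleaf) stage, 450 kg/ha spray volume, 0.3 MPa. Agents in acetone diluted with 0.1% Tween-80 water; solvent blank control. Above-ground fresh weight weighed, dead weeds scored zero.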

Capsella bursa-pastoris = assay: as above; conditions: Capsella bursa-pastoris, 480 h, read-out: Control effect (%) of A applied alone in corresponding dose
Method in brief: as §3

[1] = system: Echinochloa crusgalli var. zelayensis; assay: Post-emergence foliage spray, pot culture, fresh weight inhibition (Tables 1-48, 51-98, 101-148; 24 days)
Method in brief: as §1

Galium aparine L. = assay: as above; conditions: fresh weight inhibition after 24 days
Method in brief: as §1

Conyza Canadensis = assay: Post-emergence foliage spray, pot culture, fresh weight inhibition (Tables 151-206; 20 days); conditions: 20 days after treatment
Method in brief: as §2

Veronica didyma = assay: as above; conditions: 20 days after treatment
Method in brief: as §2

[2] = A alone 75 g a.i./ha, 20 days after treatment
[3] = A alone 150 g a.i./ha, 20 days after treatment

Compound: C[C@@H](Oc1nc(F)c(Cl)c(N)c1Cl)C(=O)O [Compound A1]
- Control effect (%) of A applied alone in corresponding dose (Echinochloa caudate; A1 75 g a.i./ha): 55.2%
- Control effect (%) of A applied alone in corresponding dose (Echinochloa caudate; A1 150 g a.i./ha): 76.3%
- Control effect (%) of A applied alone in corresponding dose (Echinochloa caudate; Table 80, 7.5 g a.i./ha): 55.2%
- Control effect (%) of A applied alone in corresponding dose (Echinochloa caudate; Table 80, 15 g a.i./ha): 76.3%
- Control effect (%) of A applied alone in corresponding dose (Echinochloa caudate; Table 81, 75 g a.i./ha): 55.2%
- Control effect (%) of A applied alone in corresponding dose (Echinochloa caudate; Table 81, 150 g a.i./ha): 76.3%
- Control effect (%) of A applied alone in corresponding dose (Echinochloa caudate; Table 85, 75 g a.i./ha): 55.2%
- Control effect (%) of A applied alone in corresponding dose (Echinochloa caudate; Table 85, 150 g a.i./ha): 76.3%
- Control effect (%) of A applied alone in corresponding dose (Echinochloa caudate; Table 86, 75 g a.i./ha): 55.2%
- Control effect (%) of A applied alone in corresponding dose (Echinochloa caudate; Table 86, 150 g a.i./ha): 76.3%
- Control effect (%) of A applied alone in corresponding dose (Echinochloa caudate; Table 89, 75 g a.i./ha): 55.2%
- Control effect (%) of A applied alone in corresponding dose (Echinochloa caudate; Table 89, 150 g a.i./ha): 76.3%
- Control effect (%) of A applied alone in corresponding dose (Echinochloa caudate; Table 97, 75 g a.i./ha): 55.2%
- Control effect (%) of A applied alone in corresponding dose (Echinochloa caudate; Table 97, 150 g a.i./ha): 76.3%
- Control effect (%) of A applied alone in corresponding dose (Malachium aquaticum; A1 7.5 g a.i./ha): 35.8%
- Control effect (%) of A applied alone in corresponding dose (Malachium aquaticum; A1 15 g a.i./ha): 69.6%
- Control effect (%) of A applied alone in corresponding dose (Alopecurus japonicus; A 75 g a.i./ha, 20 days): 31.3%
- Control effect (%) of A applied alone in corresponding dose (Alopecurus japonicus; A 150 g a.i./ha, 20 days): 57.6%
- pest or weed control at 75 g/ha (Digitaria sanguinalis; A 75 g a.i./ha, 20 days): 25.9%
- pest or weed control at 150 g/ha (Digitaria sanguinalis; A 150 g a.i./ha, 20 days): 69.1%
- Control effect (%) of A applied alone in corresponding dose (Eleusine indica; A 75 g a.i./ha, 20 days): 46.9%
- Control effect (%) of A applied alone in corresponding dose (Eleusine indica; A 150 g a.i./ha, 20 days): 81.2%
- Control effect (%) of A applied alone in corresponding dose (Sinapis arvensis; A 75 g a.i./ha, 20 days): 50.4%
- Control effect (%) of A applied alone in corresponding dose (Sinapis arvensis; A 150 g a.i./ha, 20 days): 79.9%
- Control effect (%) of A applied alone in corresponding dose (Amaranthus retroflexus; A 75 g a.i./ha, 20 days): 35.4%
- Control effect (%) of A applied alone in corresponding dose (Amaranthus retroflexus; A 150 g a.i./ha, 20 days): 71.7%
- pest or weed control at 75 g/ha (Capsella bursa-pastoris; A 75 g a.i./ha, 20 days): 56.5%
- pest or weed control at 150 g/ha (Capsella bursa-pastoris; A 150 g a.i./ha, 20 days): 82.4%

Compound: C[C@@H](Oc1nc(F)c(Cl)c(N)c1Cl)C(=O)OCC1CCCO1 (stereo partly drawn) [Compound A2]
- Control effect (%) of A applied alone in corresponding dose ([1]; A2 75 g a.i./ha): 54.2%
- Control effect (%) of A applied alone in corresponding dose ([1]; A2 150 g a.i./ha): 75.3%
- Control effect (%) of A applied alone in corresponding dose ([1]; A 75 g a.i./ha, foliage spray, fresh weight inhibition after 24 days): 54.2%
- Control effect (%) of A applied alone in corresponding dose ([1]; A 150 g a.i./ha, foliage spray, fresh weight inhibition after 24 days): 75.3%
- Control effect (%) of A applied alone in corresponding dose (Galium aparine L.; A 7.5 g a.i/ha): 34.8%
- Control effect (%) of A applied alone in corresponding dose (Galium aparine L.; A 15 g a.i/ha): 68.5%
- Control effect (%) of A applied alone in corresponding dose (Galium aparine L.; A 150 g a.i/ha (so in the source)): 68.5%
- Control effect (%) of A applied alone in corresponding dose (Alopecurus japonicus; [2]): 24.4%
- Control effect (%) of A applied alone in corresponding dose (Alopecurus japonicus; [3]): 44.5%
- Control effect (%) of A applied alone in corresponding dose (Conyza Canadensis; A alone 75 g a.i./ha): 38.1%
- Control effect (%) of A applied alone in corresponding dose (Conyza Canadensis; A alone 150 g a.i./ha): 54.4%
- pest or weed control at 75 g/ha (Digitaria sanguinalis; [2]): 19.4%
- pest or weed control at 150 g/ha (Digitaria sanguinalis; [3]): 51.6%
- Control effect (%) of A applied alone in corresponding dose (Eleusine indica; [2]): 35.7%
- Control effect (%) of A applied alone in corresponding dose (Eleusine indica; [3]): 63.3%
- Control effect (%) of A applied alone in corresponding dose (Sinapis arvensis; [2]): 37.9%
- Control effect (%) of A applied alone in corresponding dose (Sinapis arvensis; [3]): 60.4%
- Control effect (%) of A applied alone in corresponding dose (Veronica didyma; A alone 75 g a.i./ha): 19.7%
- Control effect (%) of A applied alone in corresponding dose (Veronica didyma; A alone 150 g a.i./ha): 36.6%
- Control effect (%) of A applied alone in corresponding dose (Amaranthus retroflexus; [2]): 25.7%
- Control effect (%) of A applied alone in corresponding dose (Amaranthus retroflexus; [3]): 51.8%
- pest or weed control at 75 g/ha (Capsella bursa-pastoris; [2]): 44.2%
- pest or weed control at 150 g/ha (Capsella bursa-pastoris; [3]): 65%
